Source: patent US9303069B2, “Peptides for treating cancer” (University of Mississippi Medical Center, priority 2014, dated 2016)
Ends that are not written are not given here.

Legend:
SKOV3 cells = type: cell-based, human; details: 48 h
Procedure: Thus, a peptide (hereafter IRIS peptide) composed of a cell/nucleus penetrating signal (FIG. 26) fused to BRCA1-IRIS intron 11 (FIG. 26) was synthesized. Equal numbers of HOSE, HOSE/IRIS, SKOV3, OVCAR3, OVCAR420 and OV-90 cells were grown in the presence of increasing concentrations of IRIS peptide for 48 hours.
To investigate the contribution of ErbB2 and TrkB to BRCA1-IRIS-induced cisplatin resistance, equal numbers of SKOV3 cells were either depleted from BRCA1-IRIS, ErbB2 or TrkB using specific siRNAs for 48 hours before they were (i) exposed to increasing concentrations of cisplatin for another 24 hours or (ii) exposed to IRIS peptide, ErbB2 inhibitor (CP-724714), TrkB inhibitor (K252a) or both for 24 hours, before they were exposed to increasing concentrations of cisplatin for another 24 hours.
Cell viability measurement. Cell viability under different experimental conditions was determined using the MTS assay […]. Briefly, SKOV3, OVACAR3, HOSE and HOSE/IRIS cells (2.5×10^4 cells per well) were seeded in 96 well plates and incubated overnight at 37° C. in 10% humidified CO2 atmosphere in varying concentrations of IRIS peptide, or inhibitors of ErbB2 (CP-724714), EGFR (Erlotinib), TrkB (K252a), JNK (SP600125), p38 (SB203580), ERK (PD98059) and PI3′K/AKT (LY294002) inhibitors for 24 hours at 37° C. Cell Titer 96® Aqueous (Promega, Madison, Wis., USA) was used to measure viability following manufactures instructions. Cell viability (%) was expressed as a ratio to control cells×100. Growth inhibition was also determined by manually counting cells in five different microscopic fields. Change in cell numbers (fold) was expressed as a ratio to control cells×100. All experiments were done in at least triplicates, three different times. * is p≦0.05, ** is p≦0.001 and *** is p≦0.0001.
Transfections of siRNA. siRNAs for human ErbB2 and TrkB were purchased from Ambion and Santa Cruz Biotechnology, USA. Custom synthesized siRNA against BRCA1 IRIS was used. siRNA against luciferase gene was used as the negative control. Sub-confluent cells were transfected in 6- or 96-well plates with ErbB2 (100 nM), TrkB (100 nM), BRCA1 IRIS (200 nM) or control siRNA using Oligofectamine™ reagent (GibcoBRL Inc, USA) following the instructions of the manufacturer. Protein expression was tested by Western blot after 72 hours of siRNA transfection. Cell viability was evaluated by MTS or by manual counting after 72 hours of siRNA exposure alone or in combination with cisplatin exposure (for an additional 24 hours).

BRCA1-IRIS = BRCA1-IRIS expression in breast cells (Western); type: cell-based, human
Procedure: HME and HME/IRIS cells were treated with 10, 20 and 50 μM of paclitaxel for 24 hours. Compared to HME/IRIS cells, untreated HME cells express very low level of BRCA1-IRIS (FIG. 68, left). […] Both EGF and NRG1, which were secreted at higher levels from untreated HME/IRIS cells, remained high after paclitaxel (until ˜50 μM, FIG. 68, left), whereas in HME cells, both were induced by low paclitaxel treatment (FIG. 68, left). Consistently, in HME/IRIS cells EGFR was phosphorylated on Y1173 (activated by EGF when EGFR is in complex with ErbB2) and ErbB2 on Y1248 (activated by NRG1 when ErbB2 is in complex with ErbB3) remained the same after paclitaxel treatment (until ˜50 μM, FIG. 68, left). Phosphorylated EGFR-Y1173 and ErbB2-Y1248 was only observed in paclitaxel treated HME cells, especially at low concentration (FIG. 68, left).
Survived/paclitaxel-resistant cells were then propagated in the absence of paclitaxel and analyzed. Again, the intrinsically high level of BRCA1-IRIS was not affected by paclitaxel in HME/IRIS cells (FIG. 69, left). […] The expressions of EGFR, ErbB2 and ErbB3 were high in HME/IRIS and HME cells (FIG. 69, left). Despite an intrinsic increase in HME/IRIS and paclitaxel-acquired increase in HME cells in AKT activation, FOXO inactivation/degradation and thus activation increase in CyclinD1, survivin, Bcl-2, Bcl-xL and NF-κB was observed (FIG. 69, right).
To test that hypothesis, an intron 11 peptide (right in FIG. 26) fused to a cell/nucleus penetrating signal at its N-terminus (left in FIG. 26) was synthesized (hereafter IRIS peptide). First, to assess the effect of this IRIS peptide, equal numbers of HME, HME/IRIS, MDA-MB-231, MDA-MB-468 and BT549 cells were exposed to increasing concentrations of scrambled or IRIS peptide for 48 hours. […] It is possible that preventing BRCA1-IRIS-X complex formation destabilizes BRCA1-IRIS and perhaps leads to its degradation.
To investigate whether inactivating BRCA1-IRIS could sensitize TNBC to paclitaxel-induced cell death, HME cells were exposed to 0.5 μM, while HME/IRIS, MDA-MB-231, MDA-MB-468 and BT549 cells were exposed to 5 μM of IRIS peptide alone or with 5, 10 or 20 μM of paclitaxel for 24 hours. […] Again, IRIS peptide alone at these concentrations led to 50% reduction in survival of all cell lines. […] Indeed, in the presence of IRIS peptide >60%, >70% and >90% reduction in the survival of all cell lines in the presence of 5, 10 and 20 μM of paclitaxel, respectively (FIG. 84).
To relate the effect of IRIS peptide on cell survival to the effect of BRCA1-IRIS on AKT and ERK survival pathways, MDA-MB-231 and MDA-MB-468 were treated with vehicle, 5 μM of IRIS peptide, 10 μM LY294002, 10 μM PD98059 for 24 hours or were transfected with BRCA1-IRIS siRNA for 72 hours.

MDA-MB-231 cells = details: 48 h
Procedure: All cell lines were exposed to increasing concentrations of paclitaxel and BRCA1-IRIS expression, and cells' viability was then measured.
Stable clones were then exposed to 0, 10 or 20 μM of EGFR (Erlotinib), ErbB2 (CP-724714), PI3′K/AKT (LY294002), p38 (SB203580), ERK (PD98059) or JNK (SP600125) inhibitors for 24 hours.
Cell viability under different experimental conditions was determined using the MTS assay. Briefly, cells (2.5×10^4 cells per well) were seeded in 96-well plates and incubated overnight at 37° C. in 10% humidified CO2 atmosphere. The next day they were incubated with varying concentration of peptide, or inhibitors for 24 hours at 37° C. Cell viability was determined using cell Titer 96® Aqueous (Promega, Madison, Wis., USA) following manufacturer's instructions. Cell viability (%) was expressed as a ratio of treated cells to control cells×100. Growth inhibition was also determined by manually counting cells in five different microscopic fields. Change in cell numbers (fold) was expressed as a ratio of the means of these recording of treated cells compared to control cells×100. Each experiment was done in triplicate, repeated three separate times.

RRIRPRPPRLPRPRPRPLPFPRPGIGTRFLCLPQSIYRSELNVYAFGEHILQISKYS [IRIS peptide]
IC50 (SKOV3 cells): ~10 µM
BRCA1-IRIS expression (BRCA1-IRIS; HME, HME/IRIS and TNBC cell lines, 5 μM of IRIS peptide for 24 hours): significant reduction in BRCA1-IRIS expression
BRCA1-IRIS expression (BRCA1-IRIS; MDA-MB-231 and MDA-MB-468, 5 μM IRIS peptide, 10 μM LY294002 or 10 μM PD98059 24 hours, siRNA 72 hours): significantly decreased in both cell lines
BRCA1-IRIS expression (BRCA1-IRIS; all cell lines, IRIS peptide 0.5 μM (HME) or 5 μM (others), 24 hours): completely abolished BRCA1-IRIS expression in all cell lines
IC50 (MDA-MB-231 cells): ~5 µM
